# Laboratory results: US20140314881A1 (priority 2009, published 2014)
# Where two headings read alike, the source gives them in different places.
# Columns and labels:
# [1] = Creatinine and AST levels following brain death in swine with or without ENO (Example 2); assay type: in vivo
# Procedure: The levels of creatinine and aspartate aminotransferase (AST) were monitored in two groups of swine following brain death. The level of creatinine is indicative of kidney function. The level of AST is indicative of liver function. For each groups a base line blood sample was taken, brain death was induced, and the second sample was taken after 12 h with or without 50 ppm ENO mixed into the ventilation circuit. […] AST increased in both groups but the magnitude of the increase with ENO was half that observed in the control group (35 to 79 U/l v. 30 to 145 U/l).
# [2] = ENO administration to organ donors before or during organ procurement (Examples 8-11); assay type: in vivo, human
# Procedure: A living kidney donor is administered ENO via inhalation during an open nephrectomy or as part of the insufflation gas during a laparoscopic donor nephrectomy. ENO is provided in pressurized cylinders for delivery through the ventilation or insufflation devices. The amount of ENO delivered can be titrated based on blood gas or organ blood flow changes.
# A catheter is placed in a large vein of a brain dead patient. The catheter contains a cylindrical bundle of microporous hollow fiber membranes woven into a mat at the end. The catheter is placed within the central venous blood stream in the primary vein that returns blood to the heart. […] A respiratory system is activated and oxygen with 50 ppm ENO flows from a console outside the patient, through the catheter and through the hollow fibers. The fiber membranes are permeable to gases. As a result, oxygen and ENO diffuses into the blood stream from the fibers, while carbon dioxide (CO2) diffuses out of the blood stream into the fibers. Excess O2 and CO2 are removed back through the catheter to the external console.
# Patient on respiratory is pronounced dead. Creatine phosphokinase (CPK) leak is indicative of cardiac injury. Patient is started on ENO 20 ppm and further CPK leak is prevented.
# Patient dies. […] Kidney function is preserved over durations usually associated with decline in function.
# [3] = set-up: species or system human; settings: in vivo
# [4] = Brain dead cat ventilated with ENO before kidney donation (Example 20); assay type: in vivo; settings: Example 20: brain dead cat ventilated with oxygen and 50 ppm ENO, 24 hours
# Text: A pet owner presents at a state veterinary college with her cat that was recently struck by car. […] The owner is informed that her cat is brain dead and then provided details about a feline kidney donation program—the owner agrees to have her pet's kidneys transplanted. The animal is intubated and ventilated with oxygen augmented with 50 ppm ENO to preserve organ physiologic status while potential recipients are identified. Two clients of the vet school who own cats with end-stage renal disease are contacted and are grateful for the opportunity to have their pets receive a healthy kidney.
# red blood cell SNO-Hb = assay: Circulating SNO-Hb following brain death in swine ventilated with ENO (Example 1); assay type: in vivo; settings: 12 hours after brain death
# Procedure: The level of circulating SNO-Hb following brain death in three groups of swine was measured. […] FIG. 1 is a bar graph illustrating the results of administering ENO to an organ after brain death.
# [5] = Physiological response of sheep to simulated altitude with or without ENO (Example 12); assay type: in vivo; settings: simulated altitude −4,500 meters, inhalation of 50 ppm ENO
# [6] = Example 11: deceased patient, ENO 20 ppm
smiles,measurement,setting,value
"CCON=O [ENO, ethyl nitrite]","AST level, second sample after 12 h","[1]; 50 ppm ENO in ventilation circuit, 12 h after brain death",79 U/l
same,creatinine level (kidney function),"[1]; 50 ppm ENO in ventilation circuit, 12 h after brain death vs base line",unchanged
same,magnitude of the AST increase relative to control group,"[1]; 50 ppm ENO, 12 h after brain death",half
same,"AST level, base line sample","[1]; ENO group, base line before brain death",35 U/l
same,kidney transplantation outcome,"[2]; Example 8: living kidney donor, ENO via inhalation or insufflation gas during nephrectomy",successfully transplanted
same,liver transplantation outcome,"[2]; Example 9: brain dead patient, oxygen with 50 ppm ENO via intravascular catheter",successfully transplanted
same,heart transplantation outcome,"[2]; Example 10: ENO 20 ppm, heart harvested 24 hours later",successfully transplanted
same,creatine phosphokinase (CPK) leak (cardiac injury),"[2]; Example 10: patient pronounced dead, ENO 20 ppm",prevented
same,graft rejection,[2]; [6],neither early nor late rejection is observed
same,kidney transplantation outcome,[2]; [6],successfully transplanted
same,renal function,[2]; [6],does not decline
same,breathing disorder at altitude,[3],not exacerbated
same,dyspnea during commercial flight,[3],breathing normally
same,occurrence of Acute Mountain Sickness,[3],No individuals experiences Acute Mountain Sickness
same,signs of altitude sickness at altitude (prevention),[3],no sign of altitude sickness
same,symptoms of altitude mountain sickness,[3],abate
same,symptoms of high altitude cerebral edema,[3]; iv,abate
same,symptoms of high altitude pulmonary edema,[3]; iv,abate
same,symptoms of altitude mountain sickness,[3]; po,abate
same,organ function of donor,[4],maintained organ function
same,change from baseline in red blood cell SNO-Hb concentration,red blood cell SNO-Hb; swine ventilated with 20 ppm ENO,an increase in SNO-Hb
same,change from baseline in red blood cell SNO-Hb concentration,red blood cell SNO-Hb; swine ventilated with 50 ppm ENO,an increase in SNO-Hb
same,"cardiac output, hypoxia/high-altitude-induced increase",[5],reducing
same,"pulmonary arterial pressure (PAP), hypoxia/high-altitude-induced increase",[5],reducing
same,"pulmonary vascular resistance (PVR), hypoxia/high-altitude-induced increase",[5],reducing
same,systemic vascular resistance (SVR),[5],restoring SVR
